Data taken from publication PMC6891286, “Towards the Development of an In vivo Chemical Probe for Cyclin G Associated Kinase (GAK)” (Molecules, 2019).

Experiments:
Assay in all cases: KINOMEscan
Format in all cases: binding
Details in all cases: 35 at 1 µM; read-out: % inhibition
[1] = biological target: T1, AURKB (Homo sapiens, UniProt Q96GD4)
T1 construct: purchased Eurofins DiscoverX (KINOMEscan)
Protocol: (§1) KinomeScan Assay on 35 was performed as previously described at EuroFins DiscoverX (Fremont, CA, USA).

[2] = biological target: T2, PKAC-beta (Homo sapiens, UniProt P22694)
T2 construct: purchased Eurofins DiscoverX (KINOMEscan)
Protocol: as §1

[3] = biological target: T3, PRKR (Homo sapiens, UniProt P19525)
T3 construct: purchased Eurofins DiscoverX (KINOMEscan)
Protocol: as §1

[4] = biological target: T4, ERBB4 (Homo sapiens, UniProt Q15303)
T4 construct: purchased Eurofins DiscoverX (KINOMEscan)
Protocol: as §1

[5] = biological target: T5, SLK (Homo sapiens, UniProt Q9H2G2)
T5 construct: purchased Eurofins DiscoverX (KINOMEscan)
Protocol: as §1

[6] = biological target: T6, MAP4K2 (Homo sapiens, UniProt Q12851)
T6 construct: purchased Eurofins DiscoverX (KINOMEscan)
Protocol: as §1

[7] = biological target: T7, AKT2 (Homo sapiens, UniProt P31751)
T7 construct: purchased Eurofins DiscoverX (KINOMEscan)
Protocol: as §1

[8] = biological target: T8, NEK3 (Homo sapiens, UniProt P51956)
T8 construct: purchased Eurofins DiscoverX (KINOMEscan)
Protocol: as §1

[9] = biological target: T9, FGR (Homo sapiens, UniProt P09769)
T9 construct: purchased Eurofins DiscoverX (KINOMEscan)
Protocol: as §1

[10] = biological target: T10, SBK1 (Homo sapiens, UniProt Q52WX2)
T10 construct: purchased Eurofins DiscoverX (KINOMEscan)
Protocol: as §1

[11] = biological target: T11, ACVR1B (Homo sapiens, UniProt P36896)
T11 construct: purchased Eurofins DiscoverX (KINOMEscan)
Protocol: as §1

[12] = biological target: T12, EGFR(L861Q) (Homo sapiens, UniProt P00533, L861Q)
T12 construct: purchased Eurofins DiscoverX (KINOMEscan)
Protocol: as §1

[13] = biological target: T13, ERK8 (Homo sapiens, UniProt Q8TD08)
T13 construct: purchased Eurofins DiscoverX (KINOMEscan)
Protocol: as §1

[14] = biological target: T14, ABL1(T315I)-phosphorylated (Homo sapiens, UniProt P00519, T315I)
T14 construct: purchased Eurofins DiscoverX (KINOMEscan)
Protocol: as §1

[15] = biological target: T15, TIE1 (Homo sapiens, UniProt P35590)
T15 construct: purchased Eurofins DiscoverX (KINOMEscan)
Protocol: as §1

[16] = biological target: T16, EGFR(L747-S752del, P753S) (Homo sapiens, UniProt P00533, DEL747-752/P753S)
T16 construct: purchased Eurofins DiscoverX (KINOMEscan)
Protocol: as §1

[17] = biological target: T17, CAMKK2 (Homo sapiens, UniProt Q96RR4)
T17 construct: purchased Eurofins DiscoverX (KINOMEscan)
Protocol: as §1

[18] = biological target: T18, LKB1 (Homo sapiens, UniProt Q15831)
T18 construct: purchased Eurofins DiscoverX (KINOMEscan)
Protocol: as §1

[19] = biological target: T19, CHEK1 (Homo sapiens, UniProt O14757)
T19 construct: purchased Eurofins DiscoverX (KINOMEscan)
Protocol: as §1

[20] = biological target: T20, ALK(L1196M) (Homo sapiens, UniProt Q9UM73, L1196M)
T20 construct: purchased Eurofins DiscoverX (KINOMEscan)
Protocol: as §1

[21] = biological target: T21, EPHA1 (Homo sapiens, UniProt P21709)
T21 construct: purchased Eurofins DiscoverX (KINOMEscan)
Protocol: as §1

[22] = biological target: T22, CDK4-cyclinD1 (Homo sapiens, UniProt P11802)
T22 construct: purchased Eurofins DiscoverX (KINOMEscan)
Protocol: as §1

[23] = biological target: T23, JAK1(JH2domain-pseudokinase) (Homo sapiens, UniProt P23458)
T23 construct: JAK1(JH2domain-pseudokinase); purchased Eurofins DiscoverX (KINOMEscan)
Protocol: as §1

[24] = biological target: T24, ASK2 (Homo sapiens, UniProt O95382)
T24 construct: purchased Eurofins DiscoverX (KINOMEscan)
Protocol: as §1

[25] = biological target: T25, SYK (Homo sapiens, UniProt P43405)
T25 construct: purchased Eurofins DiscoverX (KINOMEscan)
Protocol: as §1

[26] = biological target: T26, CAMK1 (Homo sapiens, UniProt Q14012)
T26 construct: purchased Eurofins DiscoverX (KINOMEscan)
Protocol: as §1

[27] = biological target: T27, TEC (Homo sapiens, UniProt P42680)
T27 construct: purchased Eurofins DiscoverX (KINOMEscan)
Protocol: as §1

[28] = biological target: T28, BIKE (Homo sapiens, UniProt Q9NSY1)
T28 construct: purchased Eurofins DiscoverX (KINOMEscan)
Protocol: as §1

[29] = biological target: T29, SIK2 (Homo sapiens, UniProt Q9H0K1)
T29 construct: purchased Eurofins DiscoverX (KINOMEscan)
Protocol: as §1

[30] = biological target: T30, MLK1 (Homo sapiens, UniProt P80192)
T30 construct: purchased Eurofins DiscoverX (KINOMEscan)
Protocol: as §1

[31] = biological target: T31, AMPK-alpha2 (Homo sapiens, UniProt P54646)
T31 construct: purchased Eurofins DiscoverX (KINOMEscan)
Protocol: as §1

[32] = biological target: T32, DLK (Homo sapiens, UniProt Q12852)
T32 construct: purchased Eurofins DiscoverX (KINOMEscan)
Protocol: as §1

[33] = biological target: T33, RIOK3 (Homo sapiens, UniProt O14730)
T33 construct: purchased Eurofins DiscoverX (KINOMEscan)
Protocol: as §1

[34] = biological target: T34, MAK (Homo sapiens, UniProt P20794)
T34 construct: purchased Eurofins DiscoverX (KINOMEscan)
Protocol: as §1

[35] = biological target: T35, LATS1 (Homo sapiens, UniProt O95835)
T35 construct: purchased Eurofins DiscoverX (KINOMEscan)
Protocol: as §1

[36] = biological target: T36, EGFR(E746-A750del) (Homo sapiens, UniProt P00533, DEL746-750)
T36 construct: purchased Eurofins DiscoverX (KINOMEscan)
Protocol: as §1

[37] = biological target: T37, IRAK3 (Homo sapiens, UniProt Q9Y616)
T37 construct: purchased Eurofins DiscoverX (KINOMEscan)
Protocol: as §1

[38] = biological target: T38, BTK (Homo sapiens, UniProt Q06187)
T38 construct: purchased Eurofins DiscoverX (KINOMEscan)
Protocol: as §1

[39] = biological target: T39, FYN (Homo sapiens, UniProt P06241)
T39 construct: purchased Eurofins DiscoverX (KINOMEscan)
Protocol: as §1

[40] = biological target: T40, PIK3CG (Homo sapiens, UniProt P48736)
T40 construct: purchased Eurofins DiscoverX (KINOMEscan)
Protocol: as §1

[41] = biological target: T41, RIOK1 (Homo sapiens, UniProt Q9BRS2)
T41 construct: purchased Eurofins DiscoverX (KINOMEscan)
Protocol: as §1

[42] = biological target: T42, INSR (Homo sapiens, UniProt P06213)
T42 construct: purchased Eurofins DiscoverX (KINOMEscan)
Protocol: as §1

[43] = biological target: T43, HUNK (Homo sapiens, UniProt P57058)
T43 construct: purchased Eurofins DiscoverX (KINOMEscan)
Protocol: as §1

Measured: activity at 1 µM

T17 sequence (Q96RR4 whole entry): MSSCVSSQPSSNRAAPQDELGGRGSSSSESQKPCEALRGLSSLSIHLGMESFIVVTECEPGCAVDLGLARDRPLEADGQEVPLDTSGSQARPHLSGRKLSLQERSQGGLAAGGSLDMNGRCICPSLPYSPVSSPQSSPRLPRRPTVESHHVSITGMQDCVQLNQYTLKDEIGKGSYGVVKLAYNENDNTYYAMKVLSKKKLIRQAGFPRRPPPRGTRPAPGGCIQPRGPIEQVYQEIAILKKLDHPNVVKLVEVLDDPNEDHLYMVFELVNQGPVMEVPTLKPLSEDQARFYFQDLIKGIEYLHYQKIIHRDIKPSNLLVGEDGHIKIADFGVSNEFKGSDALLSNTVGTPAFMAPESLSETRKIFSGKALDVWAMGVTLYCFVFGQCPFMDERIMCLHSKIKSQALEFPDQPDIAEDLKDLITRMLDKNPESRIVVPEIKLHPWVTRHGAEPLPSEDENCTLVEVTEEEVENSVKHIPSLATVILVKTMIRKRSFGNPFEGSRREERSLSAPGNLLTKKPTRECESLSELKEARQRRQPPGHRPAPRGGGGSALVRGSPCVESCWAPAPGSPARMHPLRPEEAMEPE
T35 sequence (O95835 whole entry): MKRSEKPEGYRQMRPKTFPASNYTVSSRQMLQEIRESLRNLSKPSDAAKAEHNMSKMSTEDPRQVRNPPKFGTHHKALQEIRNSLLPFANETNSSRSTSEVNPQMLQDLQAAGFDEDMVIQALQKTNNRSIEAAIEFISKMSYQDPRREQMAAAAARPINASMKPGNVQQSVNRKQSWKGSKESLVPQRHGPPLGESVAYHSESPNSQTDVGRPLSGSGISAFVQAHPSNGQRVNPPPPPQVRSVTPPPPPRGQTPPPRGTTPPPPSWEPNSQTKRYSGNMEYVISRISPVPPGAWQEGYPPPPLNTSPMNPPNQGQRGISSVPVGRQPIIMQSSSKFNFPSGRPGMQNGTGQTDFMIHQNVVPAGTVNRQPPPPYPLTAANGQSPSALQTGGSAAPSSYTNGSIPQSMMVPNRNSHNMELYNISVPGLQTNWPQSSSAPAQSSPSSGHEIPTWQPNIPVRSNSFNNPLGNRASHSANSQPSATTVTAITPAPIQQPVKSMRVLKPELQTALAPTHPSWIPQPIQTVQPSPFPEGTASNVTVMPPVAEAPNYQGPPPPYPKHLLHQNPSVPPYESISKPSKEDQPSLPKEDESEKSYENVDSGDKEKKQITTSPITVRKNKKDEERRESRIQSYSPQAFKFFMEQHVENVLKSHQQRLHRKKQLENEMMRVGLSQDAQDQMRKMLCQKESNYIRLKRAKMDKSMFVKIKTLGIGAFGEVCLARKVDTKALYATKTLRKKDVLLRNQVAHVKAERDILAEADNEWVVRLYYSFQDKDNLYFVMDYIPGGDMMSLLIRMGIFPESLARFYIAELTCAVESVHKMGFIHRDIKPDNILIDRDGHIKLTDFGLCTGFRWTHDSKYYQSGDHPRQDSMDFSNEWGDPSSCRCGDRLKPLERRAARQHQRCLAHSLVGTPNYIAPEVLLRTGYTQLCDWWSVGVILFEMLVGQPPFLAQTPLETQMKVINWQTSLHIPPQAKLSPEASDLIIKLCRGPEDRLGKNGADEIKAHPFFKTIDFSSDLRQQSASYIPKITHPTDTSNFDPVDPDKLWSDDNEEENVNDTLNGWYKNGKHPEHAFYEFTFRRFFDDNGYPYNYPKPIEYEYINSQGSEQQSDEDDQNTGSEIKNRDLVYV
T8 sequence (P51956 whole entry): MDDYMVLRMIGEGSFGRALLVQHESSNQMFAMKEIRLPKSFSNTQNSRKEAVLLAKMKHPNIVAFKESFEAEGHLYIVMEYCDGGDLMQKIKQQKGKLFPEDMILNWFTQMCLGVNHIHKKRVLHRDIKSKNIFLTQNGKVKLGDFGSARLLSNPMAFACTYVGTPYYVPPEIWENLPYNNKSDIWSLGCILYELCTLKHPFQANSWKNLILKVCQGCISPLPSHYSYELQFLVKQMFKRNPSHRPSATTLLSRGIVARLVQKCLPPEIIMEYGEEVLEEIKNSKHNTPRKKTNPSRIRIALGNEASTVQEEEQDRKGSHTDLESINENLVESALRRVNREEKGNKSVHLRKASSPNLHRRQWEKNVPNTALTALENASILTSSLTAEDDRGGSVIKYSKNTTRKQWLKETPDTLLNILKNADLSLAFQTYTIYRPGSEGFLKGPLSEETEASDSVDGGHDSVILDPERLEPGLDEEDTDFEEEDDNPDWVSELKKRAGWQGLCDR
T24 sequence (O95382 whole entry): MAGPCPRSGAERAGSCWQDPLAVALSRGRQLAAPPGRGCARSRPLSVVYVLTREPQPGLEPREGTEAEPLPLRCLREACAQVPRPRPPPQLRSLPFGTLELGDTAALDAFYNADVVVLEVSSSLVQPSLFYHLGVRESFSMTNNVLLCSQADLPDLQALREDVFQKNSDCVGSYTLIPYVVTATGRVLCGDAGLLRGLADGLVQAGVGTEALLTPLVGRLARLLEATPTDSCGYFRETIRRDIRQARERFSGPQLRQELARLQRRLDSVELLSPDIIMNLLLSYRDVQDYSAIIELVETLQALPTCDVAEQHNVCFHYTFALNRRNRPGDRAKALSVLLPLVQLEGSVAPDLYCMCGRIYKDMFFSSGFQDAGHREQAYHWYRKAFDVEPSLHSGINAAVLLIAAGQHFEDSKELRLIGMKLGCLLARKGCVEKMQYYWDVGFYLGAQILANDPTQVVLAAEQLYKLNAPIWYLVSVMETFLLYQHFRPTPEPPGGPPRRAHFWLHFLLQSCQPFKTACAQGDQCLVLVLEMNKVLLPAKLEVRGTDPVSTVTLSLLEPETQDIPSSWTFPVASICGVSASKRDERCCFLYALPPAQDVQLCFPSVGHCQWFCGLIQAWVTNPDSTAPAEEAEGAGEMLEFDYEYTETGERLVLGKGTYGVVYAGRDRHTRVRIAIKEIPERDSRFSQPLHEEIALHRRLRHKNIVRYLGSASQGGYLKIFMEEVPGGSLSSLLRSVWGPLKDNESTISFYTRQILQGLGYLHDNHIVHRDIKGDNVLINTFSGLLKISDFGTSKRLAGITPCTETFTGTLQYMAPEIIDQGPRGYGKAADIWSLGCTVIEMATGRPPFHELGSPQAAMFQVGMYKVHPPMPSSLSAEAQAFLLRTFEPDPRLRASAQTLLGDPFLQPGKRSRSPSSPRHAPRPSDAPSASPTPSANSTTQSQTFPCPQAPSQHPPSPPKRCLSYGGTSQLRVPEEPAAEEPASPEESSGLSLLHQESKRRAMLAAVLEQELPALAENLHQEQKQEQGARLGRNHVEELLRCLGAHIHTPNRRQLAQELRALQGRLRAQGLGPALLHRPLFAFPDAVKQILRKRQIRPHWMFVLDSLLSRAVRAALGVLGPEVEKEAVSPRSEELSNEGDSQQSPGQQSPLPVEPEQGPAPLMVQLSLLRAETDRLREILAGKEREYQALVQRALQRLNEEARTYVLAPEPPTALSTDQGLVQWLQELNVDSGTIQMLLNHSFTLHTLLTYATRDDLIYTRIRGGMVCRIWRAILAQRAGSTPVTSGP
T38 sequence (Q06187 whole entry): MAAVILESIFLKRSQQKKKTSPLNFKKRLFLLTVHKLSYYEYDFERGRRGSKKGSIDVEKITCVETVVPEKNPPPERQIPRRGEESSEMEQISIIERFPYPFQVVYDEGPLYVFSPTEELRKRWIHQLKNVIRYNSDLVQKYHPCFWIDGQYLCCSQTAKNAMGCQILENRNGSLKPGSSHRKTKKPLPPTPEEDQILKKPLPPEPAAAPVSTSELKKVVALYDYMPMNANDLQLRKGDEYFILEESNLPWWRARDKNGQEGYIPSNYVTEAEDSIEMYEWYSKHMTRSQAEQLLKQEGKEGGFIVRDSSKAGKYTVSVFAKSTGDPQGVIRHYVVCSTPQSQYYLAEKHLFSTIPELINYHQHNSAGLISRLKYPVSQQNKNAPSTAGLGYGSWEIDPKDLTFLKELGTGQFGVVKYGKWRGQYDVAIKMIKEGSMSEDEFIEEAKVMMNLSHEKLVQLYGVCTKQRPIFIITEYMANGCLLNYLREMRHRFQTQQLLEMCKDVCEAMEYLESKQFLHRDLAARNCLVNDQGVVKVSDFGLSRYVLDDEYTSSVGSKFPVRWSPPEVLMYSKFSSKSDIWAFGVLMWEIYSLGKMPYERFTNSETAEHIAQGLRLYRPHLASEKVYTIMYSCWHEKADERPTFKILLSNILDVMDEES
T39 sequence (P06241 whole entry): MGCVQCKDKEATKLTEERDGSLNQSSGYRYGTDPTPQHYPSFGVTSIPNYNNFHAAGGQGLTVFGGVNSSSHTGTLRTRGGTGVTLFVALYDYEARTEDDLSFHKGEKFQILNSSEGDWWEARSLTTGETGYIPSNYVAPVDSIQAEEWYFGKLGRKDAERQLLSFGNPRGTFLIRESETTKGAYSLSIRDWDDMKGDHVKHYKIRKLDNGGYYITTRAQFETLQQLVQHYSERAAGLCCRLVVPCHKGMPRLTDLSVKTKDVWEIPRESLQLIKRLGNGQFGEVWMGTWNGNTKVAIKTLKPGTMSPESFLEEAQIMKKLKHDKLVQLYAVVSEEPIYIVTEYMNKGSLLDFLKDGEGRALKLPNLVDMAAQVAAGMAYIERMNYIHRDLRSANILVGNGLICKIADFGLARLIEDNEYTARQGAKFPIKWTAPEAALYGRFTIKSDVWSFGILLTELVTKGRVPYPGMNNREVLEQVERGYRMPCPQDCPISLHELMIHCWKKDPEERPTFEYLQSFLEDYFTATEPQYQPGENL
T23 sequence (P23458 583-855 limits assumed): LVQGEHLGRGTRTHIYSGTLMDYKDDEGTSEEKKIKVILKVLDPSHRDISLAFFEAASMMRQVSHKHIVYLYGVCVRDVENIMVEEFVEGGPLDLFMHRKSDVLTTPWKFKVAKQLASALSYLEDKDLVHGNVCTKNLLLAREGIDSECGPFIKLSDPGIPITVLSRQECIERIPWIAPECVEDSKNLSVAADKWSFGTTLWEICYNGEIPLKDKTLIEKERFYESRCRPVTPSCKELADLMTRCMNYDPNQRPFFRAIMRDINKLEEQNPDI

Brc1ccc2nccc(Nc3ccc4cn[nH]c4c3)c2c1 [Compound 35, 6-Bromo-N-(1H-indazol-6-yl)quinolin-4-amine]
99%: [10] | [42]
89%: [8] | [25]
66%: [16]
88%: [23]
90%: [1]
86%: [20]
97%: [29]
79%: [36]
95%: [14]
100%: all other assays above
